Results reported in patent publication US20240398757A1 (COCRYSTAL PHARMA, INC., priority 2022, published 2024).

These molecules were tested against T1, SARS2 protease (Severe acute respiratory syndrome coronavirus 2, UniProt P0DTD1) (assay: SARS-CoV-2 protease inhibition assay (SARS2 FRET protease assay)). Conditions: IC50 (μM), SARS2 protease 30 nM, peptide substrate 1.3 μM, 120 minutes at 37° C., compounds 20 μM to 0.075 nM.
T1 construct: SARS2 protease was added to a final concentration of 30 nM
Type: biochemical
Molecule `CCCC[C@H](NC(=O)O[C@H](c1ccccc1)C(F)(F)c1cccc(F)c1)C(=O)N[C@@H](C[C@@H]1CCNC1=O)C(=O)C(=O)NCC` [Compound A284, (R)-2,2-difluoro-2-(3-fluorophenyl)-1-phenylethyl ((S)-1-(((S)-4-(ethylamino)-3,4-dioxo-1-((S)-2-oxopyrrolidin-3-yl)butan-2-yl)amino)-1-oxohexan-2-yl)carbamate] has an IC50 of 8 nM. `CC[C@@H](C)C[C@H](NC(=O)O[C@H](c1ccccc1)C(F)(F)c1cccc(Cl)c1)C(=O)N[C@@H](C[C@@H]1CCNC1=O)C(=O)C(=O)NC1CC1` [Compound A311] showed an IC50 of 181 nM. `CC(C)C[C@H](NC(=O)OC(C(C)C)C(F)(F)c1cccc(C2CC2)c1)C(=O)N[C@H](C=O)C[C@@H]1CCNC1=O` (some centres unmarked) [Compound A198] gave an IC50 of 6 nM. Molecule `CCCC[C@H](NC(=O)OC(c1ccc(F)cc1)C(F)(F)c1cccc(F)c1)C(=O)N[C@@H](C[C@@H]1CCNC1=O)C(=O)C(=O)NC1CC1` (some centres unmarked) [Compound A58] has an IC50 of 160 nM. `CCCC[C@H](NC(=O)OC(c1cnn(C)c1)C(F)(F)c1cccc(Cl)c1)C(=O)N[C@@H](C[C@@H]1CCNC1=O)C(=O)C(=O)NCC` (some centres unmarked) [Compound A319] was tested, and the IC50 was 1 nM. With `CC(C)C(OC(=O)N[C@@H](Cc1ccccc1)C(=O)N[C@H](C=O)C[C@@H]1CCNC1=O)C(F)(F)c1cccc(Cl)c1` (stereo partly drawn) [Compound A266, 1-(3-Chlorophenyl)-1,1-difluoro-3-methylbutan-2-yl ((S)-1-oxo-1-(((S)-1-oxo-3-((S)-2-oxopyrrolidin-3-yl)propan-2-yl)amino)-3-phenylpropan-2-yl)carbamate] the IC50 was 0.1 nM. `CCCC[C@H](NC(=O)OC(c1cccc(F)c1)C(F)(F)c1cccc(F)c1)C(=O)N[C@H](C=O)C[C@@H]1CCNC1=O` (some centres unmarked) [Compound A78] showed an IC50 of 9 nM. `CCCC[C@H](NC(=O)O[C@H](c1cccnc1)C(F)(F)c1cccc(Cl)c1)C(=O)N[C@H](C=O)C[C@@H]1CCNC1=O` [Compound A268, (R)-2-(3-chlorophenyl)-2,2-difluoro-1-(pyridin-3-yl)ethyl ((S)-1-oxo-1-(((S)-1-oxo-3-((S)-2-oxopyrrolidin-3-yl)propan-2-yl)amino)hexan-2-yl)carbamate] was tested, and the IC50 was 0.08 nM. Work on `CCCC[C@H](NC(=O)OC(c1ccc(F)cc1)C(F)(F)c1cccc(F)c1)C(=O)N[C@H](C=O)C[C@@H]1CCNC1=O` (some centres unmarked) [Compound A55] yielded an IC50 of 10 nM. Molecule `CCCC[C@H](NC(=O)OC(c1ccccc1)C(F)(F)c1cccc(F)c1)C(=O)N[C@H](C=O)C[C@@H]1CCNC1=O` (stereo partly drawn) [Compound A77, 2,2-difluoro-2-(3-fluorophenyl)-1-phenylethyl ((S)-1-oxo-1-(((S)-1-oxo-3-((S)-2-oxopyrrolidin-3-yl)propan-2-yl)amino)hexan-2-yl)carbamate] has an IC50 of 9 nM. `CCCC[C@H](NC(=O)OC(c1ccccc1)C(F)(F)c1cccc(Cl)c1)C(=O)N[C@H](C=O)CC1CC(C)NC1=O` (some centres unmarked) [Compound A112] showed an IC50 of 179 nM. Molecule `CC(C)C[C@H](NC(=O)O[C@H](c1cccc(Cl)c1)C1(c2cccc(Cl)c2)CC1)C(=O)N[C@@H](C[C@@H]1CCNC1=O)C(=O)C(=O)NC1CC1` [Compound A30] has an IC50 of 100 nM. For `CCN1CCC(NC(=O)C(=O)[C@H](C[C@@H]2CCNC2=O)NC(=O)[C@H](CC(C)C)NC(=O)OC(c2ccccc2)C(CC)(CC)c2cccc(Cl)c2)CC1` (some centres unmarked) [Compound A17], the IC50 was 30300 nM. Work on `CCCC[C@H](NC(=O)OC(c1ccc(F)cc1)C1(c2cccc(F)c2)CC1)C(=O)N[C@H](C=O)C[C@@H]1CCNC1=O` (some centres unmarked) [Compound A64] yielded an IC50 of 3 nM. `CC(C)C[C@H](NC(=O)OC(c1cccc(Cl)c1)C1(c2cccc(Cl)c2)CCCCC1)C(=O)N[C@@H](C[C@@H]1CCNC1=O)C(=O)C(=O)NC1CC1` (some centres unmarked) [Compound A65] was tested, and the IC50 was 571 nM. In the case of `CCC1(C[C@H](NC(=O)OC(c2ccccc2)C(F)(F)c2cccc(Cl)c2)C(=O)N[C@@H](C[C@@H]2CCNC2=O)C(=O)C(=O)NC2CC2)CC1` (stereo partly drawn) [Compound A281, 2-(3-chlorophenyl)-2,2-difluoro-1-phenylethyl ((S)-1-(((S)-4-(cyclopropylamino)-3,4-dioxo-1-((S)-2-oxopyrrolidin-3-yl)butan-2-yl)amino)-3-(1-ethylcyclopropyl)-1-oxopropan-2-yl)carbamate], the IC50 was 1 nM. For `CCNC(=O)C(=O)[C@H](C[C@@H]1CCNC1=O)NC(=O)[C@H](Cc1ccc(Cl)c(Cl)c1)NC(=O)OC(c1ccccc1)C(C)(C)c1cccc(Cl)c1` (stereo partly drawn) [Compound A280, 2-(3-chlorophenyl)-2-methyl-1-phenylpropyl ((S)-3-(3,4-dichlorophenyl)-1-(((S)-4-(ethylamino)-3,4-dioxo-1-((S)-2-oxopyrrolidin-3-yl)butan-2-yl)amino)-1-oxopropan-2-yl)carbamate], the IC50 was 4500 nM. Work on `CC(C)C[C@H](NC(=O)O[C@@H](c1ccccc1)C(F)(F)c1cccc(C2CC2)c1)C(=O)N[C@@H](C[C@@H]1CCNC1=O)C(=O)C(=O)NC1CC1` [Compound A288] yielded an IC50 of 260 nM. Work on `O=C[C@H](C[C@@H]1CCNC1=O)NC(=O)[C@H](CC1CCC1)NC(=O)OC(c1ccccc1)C(F)(F)c1cccc(Cl)c1` (some centres unmarked) [Compound A102] yielded an IC50 of 0.1 nM. With `CCC(CC)(c1cccc(Cl)c1)C(OC(=O)N[C@@H](CC(C)C)C(=O)N[C@@H](C[C@@H]1CCNC1=O)C(=O)C(=O)NC1CC1)c1ccc(F)c(F)c1` (some centres unmarked) [Compound A22] the IC50 was 320 nM. `CCCC[C@H](NC(=O)OC(c1cccc(F)c1)C(F)(F)c1cccc(Cl)c1)C(=O)N[C@H](C=O)C[C@@H]1CCNC1=O` (some centres unmarked) [Compound A99] showed an IC50 of 0.6 nM. `CCCC[C@H](NC(=O)OC(c1ccccc1)C1(c2cccc(F)c2)CC1)C(=O)N[C@@H](C[C@@H]1CCNC1=O)C(=O)C(=O)NC1CC1` (some centres unmarked) [Compound A56] was tested, and the IC50 was 560 nM. `CCCC[C@H](NC(=O)O[C@H](c1ccccc1)C(F)(F)c1cccc(F)c1)C(=O)N[C@H](C=O)C[C@@H]1CCNC1=O` [Compound A144] was tested, and the IC50 was 23 nM. In the case of `O=C(N[C@@H](CC1CCCCC1)C(=O)N[C@@H](C[C@@H]1CCNC1=O)C(O)S(=O)(=O)O)O[C@@H](c1ccccc1)C(F)(F)c1cccc(Cl)c1` (stereo partly drawn) [Compound A141, sodium (2S)-2-((S)-2-((((S)-2-(3-chlorophenyl)-2,2-difluoro-1-phenylethoxy)carbonyl)amino)-3-cyclohexylpropanamido)-1-hydroxy-3-((S)-2-oxopyrrolidin-3-yl)propane-1-sulfonate], the IC50 was 55 nM. Molecule `CC(C)C[C@H](NC(=O)O[C@@H](c1cccc(Cl)c1)C(C)(C)c1cccc(Cl)c1)C(=O)N[C@H](C=O)C[C@@H]1CCNC1=O` [Compound A139] has an IC50 of 3 nM. `CCOC(=O)/C=C/[C@H](C[C@@H]1CCNC1=O)NC(=O)[C@H](CC(C)C)NC(=O)OC(c1ccccc1)C(F)(F)c1cccc(Cl)c1` (some centres unmarked) [Compound A128] was tested, and the IC50 was 3950 nM. In the case of `CC(C)C[C@H](NC(=O)O[C@@H](c1ccccc1)C(F)(F)c1cccc(Cl)c1)C(=O)N[C@@H](C[C@@H]1CCNC1=O)C(=O)C(=O)NC1CC1` [Compound A317], the IC50 was 0.4 nM. Work on `CCCC[C@H](NC(=O)OC(c1ccccc1)C(F)(F)c1cccc(Cl)c1)C(=O)N[C@H](C=O)C[C@H]1CCNC1=O` (some centres unmarked) [Compound A183] yielded an IC50 of 19 nM. With `CCC(=O)OC([C@H](C[C@@H]1CCNC1=O)NC(=O)[C@H](CC1CCCCC1)NC(=O)O[C@@H](c1ccccc1)C(F)(F)c1cccc(Cl)c1)S(=O)(=O)O` (stereo partly drawn) [Compound A229, sodium (2S,6S,9S)-1-(3-chlorophenyl)-6-(cyclohexylmethyl)-1,1-difluoro-4,7,12-trioxo-9-(((S)-2-oxopyrrolidin-3-yl)methyl)-2-phenyl-3,11-dioxa-5,8-diazatetradecane-10-sulfonate] the IC50 was ≥ 20000 nM. With `CCCC[C@H](NC(=O)OC(c1ccccc1)C(F)(F)c1cccc(Cl)c1)C(=O)N[C@@H](C[C@H]1CCNC1=O)C(=O)C(=O)NC1CC1` (some centres unmarked) [Compound A168] the IC50 was 750 nM. `CC(C)C[C@H](NC(=O)OC(c1ccccc1)C1(c2cccc(Cl)c2)CCNCC1)C(=O)N[C@@H](C[C@@H]1CCNC1=O)C(=O)C(=O)NC1CC1` (some centres unmarked) [Compound A52] showed an IC50 of 1420 nM. Molecule `O=C(N[C@@H](CC1CCCCC1)C(=O)N[C@@H](C[C@@H]1CCNC1=O)C(=O)C(=O)NC1CC1)O[C@@H](c1ccccc1)C(F)(F)c1cccc(Cl)c1` [Compound A116] has an IC50 of 28.9 nM. With `CCN1CCC(NC(=O)C(=O)[C@H](C[C@@H]2CCNC2=O)NC(=O)[C@H](CC(C)C)NC(=O)OC(c2ccc(F)cc2)C(CC)(CC)c2cccc(Cl)c2)CC1` (some centres unmarked) [Compound A32] the IC50 was 10100 nM. With `O=C[C@H](C[C@@H]1CCNC1=O)NC(=O)[C@H](CC1CC1)NC(=O)O[C@H](c1ccccc1)C(F)(F)c1cccc(Cl)c1` [Compound A157] the IC50 was 0.2 nM. `CC(C)C[C@H](NC(=O)OC(c1ccc(F)cc1)C(F)(F)c1cccc(Cl)c1)C(=O)N[C@H](C=O)C[C@@H]1CCNC1=O` (some centres unmarked) [Compound A1] gave an IC50 of 0.1 nM. `CC(C)C[C@H](NC(=O)OC(c1cccc(Cl)c1)C1(c2cccc(Cl)c2)CCC1)C(=O)N[C@H](C=O)C[C@@H]1CCNC1=O` (some centres unmarked) [Compound A7] showed an IC50 of 120 nM. `O=C[C@H](C[C@@H]1CCNC1=O)NC(=O)[C@H](CC1CC1)NC(=O)OC(c1ccccc1)C(F)(F)c1cccc(Cl)c1` (some centres unmarked) [Compound A95] gave an IC50 of 0.9 nM. In the case of `CCNC(=O)C(=O)[C@H](C[C@@H]1CCNC1=O)NC(=O)[C@H](CC1CC1)NC(=O)O[C@@H](c1ccccc1)C(F)(F)c1cccc(Cl)c1` [Compound A174], the IC50 was 1.4 nM. Molecule `CC(C)C[C@H](NC(=O)O[C@H](c1ccc(Cl)cc1)C1(c2cccc(Cl)c2)CC1)C(=O)N[C@@H](C[C@@H]1CCNC1=O)C(=O)C(=O)NC1CC1` [Compound A60] has an IC50 of 1910 nM. Work on `CCCC[C@H](NC(=O)OC(c1ccccc1)C(F)(F)c1cccc(Cl)c1)C(=O)N[C@@H](C[C@@H]1CCCNC1=O)C(=O)C(=O)NC1CC1` (some centres unmarked) [Compound A127] yielded an IC50 of 10 nM. `CCCC(=O)OC([C@H](C[C@@H]1CCNC1=O)NC(=O)[C@H](CC1CCCCC1)NC(=O)O[C@@H](c1ccccc1)C(F)(F)c1cccc(Cl)c1)S(=O)(=O)O` (stereo partly drawn) [Compound A242, sodium (2S,6S,9S)-1-(3-chlorophenyl)-6-(cyclohexylmethyl)-1,1-difluoro-4,7,12-trioxo-9-(((S)-2-oxopyrrolidin-3-yl)methyl)-2-phenyl-3,11-dioxa-5,8-diazapentadecane-10-sulfonate] gave an IC50 of 1200 nM.
